Patent US6479435B1, “Diaryl ethers and processes for their preparation and herbicidal and desiccant compositions containing them” (ISK Americas Incorporated, priority 1997, dated 2002)

Columns and labels:
Assay type in all cases: in vivo
[1] = tested on: field corn (Zea mays L., var. Dekalb 535, CORN); experiment: Post-emerge greenhouse test, crop damage rating; details: 14 days after application
Outline: (§1)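 Compounds in acetone with 0.25% v/v non-ionic surfactant were track-sprayed at 187 l/ha over plants at the 2-3 leaf stage, at 63 to 1000 g ai/ha. Pots were bottom-watered. Injury was scored visually 14 days later on a 0-100 scale, where 0 is no damage and 100 is complete plant death.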

[2] = tested on: common ragweed (Ambrosia artemisiifolia L., AMBEL); experiment: Post-emerge greenhouse herbicide test, phytotoxicity rating; details: 14 days after application
Outline: as §1

[3] = tested on: upland rice (Oryza sp., var.Tebonnet, RICE); experiment: Pre-emerge greenhouse test, crop damage rating; details: 125 g ai/ha, 14 days after application, rating scale 0-100
Outline: (§2)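 Seeds sown in sandy loam mix one day before track-sprayer application of compounds in acetone at 125–1000 g ai/ha (187 l/ha), then surface-watered to incorporate and bottom-watered. Visual rating 14 days after application on a 0–100 scale (0 = no damage, 100 = all plants dead).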

[4] = tested on: field corn (Zea mays L., var. Dekalb 535, CORN); experiment: Pre-emerge greenhouse test, crop damage rating; details: 14 days after application, rating scale 0-100
Outline: as §2

[5] = tested on: ivyleaf morningglory (Ipomoea hederacea, IPOHE); experiment: Pre-emerge greenhouse herbicide test, phytotoxicity rating; details: 14 days after application, rating scale 0-100
Outline: as §2

[6] = tested on: redroot pigweed (Amaranthus retroflexus, AMARE); experiment: as above; details: 14 days after application, rating scale 0-100
Outline: as §2

[7] = tested on: Johnsongrass (Sorghum halepense, SORHA); experiment: as above; details: 14 days after application, rating scale 0-100
Outline: as §2

[8] = tested on: sicklepod (Cassia obtusifolia, CASOB); experiment: as above; details: 14 days after application, rating scale 0-100
Outline: as §2

[9] = tested on: barnyardgrass (Echinochloa crusgalli, ECHCG); experiment: as above; details: 14 days after application, rating scale 0-100
Outline: as §2

[10] = tested on: large crabgrass (Digitaria sanguinalis, DIGSA); experiment: as above; details: 14 days after application, rating scale 0-100
Outline: as §2

[11] = tested on: velvetleaf (Abutilon theophrasti, ABUTH); experiment: as above; details: 14 days after application, rating scale 0-100
Outline: as §2

[12] = tested on: green foxtail (Setaria viridis, SETVI); experiment: as above; details: 14 days after application, rating scale 0-100
Outline: as §2

[13] = tested on: common ragweed (Ambrosia artemisiifolia L., AMBEL); experiment: as above; details: 14 days after application, rating scale 0-100
Outline: as §2

[14] = tested on: lambsquarters (Chenopodium album, CHEAL); experiment: as above; details: 14 days after application, rating scale 0-100
Outline: as §2

[15] = tested on: soybean (Glycine max L., var. Pella 86, SOY); experiment: Post-emerge greenhouse test, crop damage rating; details: 14 days after application
Outline: as §1

[16] = tested on: soybean (Glycine max L., var. Pella 86, SOY); experiment: Pre-emerge greenhouse test, crop damage rating; details: 14 days after application, rating scale 0-100
Outline: as §2

[17] = tested on: ivyleaf morningglory (Ipomoea hederacea, IPOHE); experiment: Post-emerge greenhouse herbicide test, phytotoxicity rating; details: 14 days after application
Outline: as §1

[18] = tested on: redroot pigweed (Amaranthus retroflexus, AMARE); experiment: as above; details: 14 days after application
Outline: as §1

[19] = tested on: Johnsongrass (Sorghum halepense, SORHA); experiment: as above; details: 14 days after application
Outline: as §1

[20] = tested on: barnyardgrass (Echinochloa crusgalli, ECHCG); experiment: as above; details: 14 days after application
Outline: as §1

[21] = tested on: large crabgrass (Digitaria sanguinalis, DIGSA); experiment: as above; details: 14 days after application
Outline: as §1

[22] = tested on: velvetleaf (Abutilon theophrasti, ABUTH); experiment: as above; details: 14 days after application
Outline: as §1

[23] = tested on: green foxtail (Setaria viridis, SETVI); experiment: as above; details: 14 days after application
Outline: as §1

[24] = tested on: lambsquarters (Chenopodium album, CHEAL); experiment: as above; details: 14 days after application
Outline: as §1

[25] = tested on: sicklepod (Cassia obtusifolia, CASOB); experiment: as above; details: 14 days after application
Outline: as §1

Cn1nc(-c2cc(Oc3nc(F)c(F)cc3F)c(Cl)cc2F)c(Cl)c1C(F)(F)F [Compound 1-6]
CORN crop damage rating (0-100) ([1]; 63 g al/ha): 10
CORN crop damage rating (0-100) ([1]; 500 g al/ha): 10
AMBEL phytotoxicity rating (0-100) ([2]; 63 g al/ha): 0
AMBEL phytotoxicity rating (0-100) ([2]; 500 g al/ha): 90
crop damage rating RICE [3]: 0
crop damage rating CORN ([4]; 125 g ai/ha): 0
crop damage rating CORN ([4]; 500 g ai/ha): 0
phytotoxicity rating IPOHE ([5]; 125 g ai/ha): 30
phytotoxicity rating IPOHE ([5]; 500 g ai/ha): 99
phytotoxicity rating AMARE ([6]; 125 g ai/ha): 95
phytotoxicity rating AMARE ([6]; 500 g ai/ha): 99
phytotoxicity rating SORHA ([7]; 125 g ai/ha): 0
phytotoxicity rating SORHA ([7]; 500 g ai/ha): 90
phytotoxicity rating CASOB ([8]; 125 g ai/ha): 0
phytotoxicity rating CASOB ([8]; 500 g ai/ha): 0
phytotoxicity rating ECHCG ([9]; 125 g ai/ha): 30
phytotoxicity rating ECHCG ([9]; 500 g ai/ha): 70
phytotoxicity rating DIGSA ([10]; 125 g ai/ha): 20
phytotoxicity rating DIGSA ([10]; 500 g ai/ha): 10
phytotoxicity rating ABUTH ([11]; 125 g ai/ha): 50
phytotoxicity rating ABUTH ([11]; 500 g ai/ha): 80
phytotoxicity rating SETVI ([12]; 125 g ai/ha): 60
phytotoxicity rating SETVI ([12]; 500 g ai/ha): 30
phytotoxicity rating AMBEL ([13]; 125 g ai/ha): 100
phytotoxicity rating AMBEL ([13]; 500 g ai/ha): 99
phytotoxicity rating CHEAL ([14]; 125 g ai/ha): 40
phytotoxicity rating CHEAL ([14]; 500 g ai/ha): 100
SOY crop damage rating (0-100) ([15]; 63 g al/ha): 30
SOY crop damage rating (0-100) ([15]; 500 g al/ha): 50
crop damage rating SOY ([16]; 125 g ai/ha): 0
crop damage rating SOY ([16]; 500 g ai/ha): 0
IPOHE phytotoxicity rating (0-100) ([17]; 63 g al/ha): 50
IPOHE phytotoxicity rating (0-100) ([17]; 500 g al/ha): 100
AMARE phytotoxicity rating (0-100) ([18]; 63 g al/ha): 99
AMARE phytotoxicity rating (0-100) ([18]; 500 g al/ha): 100
SORHA phytotoxicity rating (0-100) ([19]; 63 g al/ha): 30
SORHA phytotoxicity rating (0-100) ([19]; 500 g al/ha): 70
ECHCG phytotoxicity rating (0-100) ([20]; 63 g al/ha): 20
ECHCG phytotoxicity rating (0-100) ([20]; 500 g al/ha): 70
DIGSA phytotoxicity rating (0-100) ([21]; 63 g al/ha): 0
ABUTH phytotoxicity rating (0-100) ([22]; 63 g al/ha): 50
ABUTH phytotoxicity rating (0-100) ([22]; 500 g al/ha): 100
SETVI phytotoxicity rating (0-100) ([23]; 63 g al/ha): 20
SETVI phytotoxicity rating (0-100) ([23]; 500 g al/ha): 60
CHEAL phytotoxicity rating (0-100) ([24]; 63 g al/ha): 30
CHEAL phytotoxicity rating (0-100) ([24]; 500 g al/ha): 100

O=c1sc(=Nc2cc(Oc3ncccc3C(F)(F)F)c(Cl)cc2F)n2n1CCCC2 [Compound 7-1, 9-[4-chloro-2-fluoro-5-(3-trifluoromethyl-2-pyridyloxy)phenylimino]-8-thia-1,6-diazabicyclo[4,3,0]nonane-7-one]
AMBEL phytotoxicity rating (0-100) ([2]; 63 g al/ha): 95
AMBEL phytotoxicity rating (0-100) ([2]; 500 g al/ha): 100
phytotoxicity rating IPOHE ([5]; 125 g ai/ha): 0
phytotoxicity rating IPOHE ([5]; 500 g ai/ha): 0
phytotoxicity rating AMARE ([6]; 125 g ai/ha): 100
phytotoxicity rating AMARE ([6]; 500 g ai/ha): 100
phytotoxicity rating SORHA ([7]; 125 g ai/ha): 0
phytotoxicity rating SORHA ([7]; 500 g ai/ha): 60
phytotoxicity rating CASOB ([8]; 125 g ai/ha): 50
phytotoxicity rating CASOB ([8]; 500 g ai/ha): 10
phytotoxicity rating ECHCG ([9]; 125 g ai/ha): 0
phytotoxicity rating ECHCG ([9]; 500 g ai/ha): 0
phytotoxicity rating DIGSA ([10]; 125 g ai/ha): 60
phytotoxicity rating DIGSA ([10]; 500 g ai/ha): 90
phytotoxicity rating ABUTH ([11]; 125 g ai/ha): 90
phytotoxicity rating ABUTH ([11]; 500 g ai/ha): 100
phytotoxicity rating SETVI ([12]; 125 g ai/ha): 90
phytotoxicity rating SETVI ([12]; 500 g ai/ha): 100
phytotoxicity rating AMBEL ([13]; 125 g ai/ha): 80
phytotoxicity rating AMBEL ([13]; 500 g ai/ha): 90
phytotoxicity rating CHEAL ([14]; 125 g ai/ha): 100
phytotoxicity rating CHEAL ([14]; 500 g ai/ha): 100
IPOHE phytotoxicity rating (0-100) ([17]; 63 g al/ha): 100
IPOHE phytotoxicity rating (0-100) ([17]; 500 g al/ha): 100
AMARE phytotoxicity rating (0-100) ([18]; 63 g al/ha): 100
AMARE phytotoxicity rating (0-100) ([18]; 500 g al/ha): 100
SORHA phytotoxicity rating (0-100) ([19]; 500 g al/ha): 30
CASOB phytotoxicity rating (0-100) ([25]; 63 g al/ha): 70
CASOB phytotoxicity rating (0-100) ([25]; 500 g al/ha): 20
ECHCG phytotoxicity rating (0-100) ([20]; 63 g al/ha): 0
ECHCG phytotoxicity rating (0-100) ([20]; 500 g al/ha): 20
DIGSA phytotoxicity rating (0-100) ([21]; 63 g al/ha): 30
DIGSA phytotoxicity rating (0-100) ([21]; 500 g al/ha): 60
ABUTH phytotoxicity rating (0-100) ([22]; 63 g al/ha): 90
ABUTH phytotoxicity rating (0-100) ([22]; 500 g al/ha): 100
SETVI phytotoxicity rating (0-100) ([23]; 63 g al/ha): 20
SETVI phytotoxicity rating (0-100) ([23]; 500 g al/ha): 60
CHEAL phytotoxicity rating (0-100) ([24]; 63 g al/ha): 100
CHEAL phytotoxicity rating (0-100) ([24]; 500 g al/ha): 100
